Values joined by “and” are separate entries in the source; they are usually repeats but may differ in a detail not shown here. Equal entries are not always repeated. Toxic doses and inconclusive results are not listed. How the source made its calls: active means survival T/C of 150% or more; inactive means T/C below 125% in these data.
Tested on: P388 leukemia ip, CD2F1 mice, survival T/C
Experiment: NCI In Vivo Anticancer Drug Screen. Data for tumor model P388 Leukemia (intraperitoneal) in CD2F1 (CDF1) mice
Settings: endpoint: median survival time, higher = longer survival
Method in brief: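 Mice carrying the transplanted tumor received test compound or vehicle. Survival was recorded in each group, and the value is the treated-group measurement divided by that of the vehicle-treated control group.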

[1] = dose: 100.0 mg/kg/injection, schedule: Q04DX003 (ip), vehicle: saline with Tween-80
[2] = dose: 200.0 mg/kg/injection, schedule: Q04DX003 (ip), vehicle: saline with Tween-80
[3] = dose: 400.0 mg/kg/injection, schedule: Q04DX003 (ip), vehicle: saline with Tween-80
[4] = dose: 12.5 mg/kg/injection, schedule: Q01DX005 (ip), vehicle: saline with Tween-80
[5] = dose: 25.0 mg/kg/injection, schedule: Q01DX005 (ip), vehicle: saline with Tween-80
[6] = dose: 50.0 mg/kg/injection, schedule: Q01DX005 (ip), vehicle: saline with Tween-80
[7] = dose: 100.0 mg/kg/injection, schedule: Q01DX009 (ip), vehicle: saline with Tween-80
[8] = dose: 200.0 mg/kg/injection, schedule: Q01DX009 (ip), vehicle: saline with Tween-80
[9] = dose: 400.0 mg/kg/injection, schedule: Q01DX009 (ip), vehicle: saline with Tween-80
[10] = dose: 50.0 mg/kg/injection, schedule: Q01DX005 (ip), vehicle: Klucel (hydroxypropylcellulose) (HPC)
[11] = dose: 100.0 mg/kg/injection, schedule: Q01DX005 (ip), vehicle: Klucel (hydroxypropylcellulose) (HPC)
[12] = dose: 100.0 mg/kg/injection, schedule: Q01DX005 (ip), vehicle: saline with Tween-80
[13] = dose: 200.0 mg/kg/injection, schedule: Q01DX005 (ip), vehicle: saline with Tween-80
[14] = dose: 50.0 mg/kg/injection, schedule: Q01DX009 (ip), vehicle: saline with Tween-80
[15] = dose: 60.0 mg/kg/injection, schedule: Q01DX005 (ip), vehicle: saline with Tween-80
[16] = dose: 120.0 mg/kg/injection, schedule: Q01DX005 (ip), vehicle: saline with Tween-80
[17] = dose: 240.0 mg/kg/injection, schedule: Q01DX005 (ip), vehicle: saline with Tween-80
[18] = dose: 50.0 mg/kg/injection, schedule: Q01DX009 (ip), vehicle: saline
[19] = dose: 25.0 mg/kg/injection, schedule: Q01DX009 (ip), vehicle: saline with Tween-80
[20] = dose: 200.0 mg/kg/injection, schedule: Q01DX005 (ip), vehicle: Klucel (hydroxypropylcellulose) (HPC)

Measured: T/C

COc1cccc(/C=C/C(=O)c2ccc(Cl)cc2)c1OC
inactive: [1] 100 % of control | [2] 100 % of control | [3] 90 % of control

Nc1ccccc1/C=C/c1ccnc2ccccc12
inactive: dose: 12.5 mg/kg/injection, schedule: Q01DX001 (ip), vehicle: Klucel (hydroxypropylcellulose) (HPC) 101 % of control and 96 % of control | dose: 25.0 mg/kg/injection, schedule: Q01DX001 (ip), vehicle: Klucel (hydroxypropylcellulose) (HPC) 100 % of control and 89 % of control | dose: 50.0 mg/kg/injection, schedule: Q01DX001 (ip), vehicle: Klucel (hydroxypropylcellulose) (HPC) 91 % of control and 97 % of control | dose: 100.0 mg/kg/injection, schedule: Q01DX001 (ip), vehicle: Klucel (hydroxypropylcellulose) (HPC) 87 % of control and 94 % of control

CS1=C2C(=O)CC(C)(C)CC2=Nc2ccccc21 (centres undefined)
inactive: [4] 104 % of control | [5] 104 % of control | [6] 99 % of control and 100 % of control

O=C(Nc1ccccc1)OCC(Cl)(Cl)Cl
inactive: [7] 100 % of control | [8] 100 % of control | [9] 119 % of control

CCOC(=O)CCC1=C(C)c2cc3[n-]c(cc4nc(cc5[n-]c(cc1n2)c(CCC(=O)OCC)c5C)C=C4C)cc3C.[Ni+2]
inactive: [10] 96 % of control | [11] 92 % of control

O=C(O)Cc1csc(=S)n1-c1ccccc1
inactive: [6] 97 % of control | [12] 102 % of control | [13] 90 % of control

CCc1cccc(NC(=O)SCc2ccccc2)c1
inactive: [14] 94 % of control | [7] 98 % of control

Cc1cnc(NS(=O)(=O)c2ccc(N)cc2)nc1-c1ccccc1O
inactive: [15] 100 % of control | [16] 93 % of control | [17] 86 % of control

Clc1ccnc2ccc3ccccc3c12
inactive: [18] 107 % of control | dose: 100.0 mg/kg/injection, schedule: Q01DX009 (ip), vehicle: saline 100 % of control and 101 % of control | dose: 200.0 mg/kg/injection, schedule: Q01DX009 (ip), vehicle: saline 100 % of control and 92 % of control

C/C(=N/OC1=CC(=O)CC(C)(C)C1)c1ccccc1
inactive: [6] 104 % of control | [12] 104 % of control | [13] 99 % of control

Nc1ccccc1C(=O)CCc1ccccc1C(=O)O
inactive: [6] 96 % of control | [12] 99 % of control | [13] 96 % of control

O=CCCOC1CCCCO1 (centres undefined)
inactive: dose: 50.0 mg/kg/injection, schedule: Q01DX009 (ip), vehicle: other 116 % of control | dose: 100.0 mg/kg/injection, schedule: Q01DX009 (ip), vehicle: other 110 % of control | dose: 200.0 mg/kg/injection, schedule: Q01DX009 (ip), vehicle: other 104 % of control

CN(C)CCOc1ccc(/C=C2\CCc3ccccc3C2=O)cc1
inactive: [15] 97 % of control | [16] 94 % of control | [17] 95 % of control

O=C(OCCN(CCOC(=O)c1ccc([N+](=O)[O-])cc1)c1c[nH]c(=O)[nH]c1=O)c1ccc([N+](=O)[O-])cc1
inactive: [6] 96 % of control | [12] 104 % of control | [13] 96 % of control

COc1ccccc1C(O)(c1ccccc1OC)C1(O)CCN(C)CC1
inactive: [10] 94 % of control | [11] 95 % of control

CCOC1OCN(c2ccc(Cl)cc2)CC1(C)C (centres undefined)
inactive: [19] 111 % of control | [14] 106 % of control and 107 % of control and 93 % of control | [7] 100 % of control and 119 % of control | [8] 101 % of control and 116 % of control | [9] 100 % of control and 110 % of control

COc1ccc(CSC(=S)Nc2ccc(Br)c(C)c2)cc1
inactive: dose: 50.0 mg/kg/injection, schedule: Q01DX009 (ip), vehicle: suspension in saline 96 % of control | dose: 100.0 mg/kg/injection, schedule: Q01DX009 (ip), vehicle: suspension in saline 101 % of control | dose: 200.0 mg/kg/injection, schedule: Q01DX009 (ip), vehicle: suspension in saline 109 % of control

CC(O)C(NC(=O)OC(C)(C)C)C(=O)ON1C(=O)CCC1=O (centres undefined)
inactive: [14] 101 % of control | [7] 101 % of control | [8] 101 % of control

O=[N+]([O-])c1cc(CNCCO)c(O)c2ncccc12
inactive: [15] 91 % of control | [16] 93 % of control | [17] 110 % of control

CCCCC(O)CNc1ccccc1 (centres undefined)
inactive: [15] 105 % of control | [16] 99 % of control | [17] 90 % of control

CCCC1OCC(O)C(C(O)C(=O)CN(C)c2ccccc2)O1 (centres undefined)
inactive: [6] 98 % of control | [12] 100 % of control | [13] 98 % of control

O=[N+]([O-])c1cc(Br)c2cccc3c2c1CC3
inactive: dose: 25.0 mg/kg/injection, schedule: Q01DX005 (ip), vehicle: Klucel (hydroxypropylcellulose) (HPC) 91 % of control | [10] 93 % of control | [11] 90 % of control

CC(C)(C)N=C(Cc1ccccc1)N1CCOCC1
inactive: [14] 119 % of control | [7] 96 % of control | [8] 90 % of control

Cc1ccccc1SSCCN
inactive: [10] 103 % of control | [11] 103 % of control

CNC(C#N)C(C)F (centres undefined)
inactive: dose: 15.0 mg/kg/injection, schedule: Q01DX005 (ip), vehicle: saline 98 % of control | dose: 30.0 mg/kg/injection, schedule: Q01DX005 (ip), vehicle: saline 99 % of control | dose: 60.0 mg/kg/injection, schedule: Q01DX005 (ip), vehicle: saline 99 % of control and 98 % of control

O=C(NC(=S)c1ccc(Br)cc1)NS(=O)(=O)c1ccccc1
inactive: dose: 100.0 mg/kg/injection, schedule: Q01DX001 (ip), vehicle: saline with Tween-80 107 % of control | dose: 200.0 mg/kg/injection, schedule: Q01DX001 (ip), vehicle: saline with Tween-80 102 % of control | dose: 400.0 mg/kg/injection, schedule: Q01DX001 (ip), vehicle: saline with Tween-80 102 % of control

C=CCOc1nc(OCC=C)nc(OCC=C)n1
inactive: [7] 97 % of control | [8] 93 % of control

CCC(=O)Nc1n[nH]c(NC(=O)CC)n1
inactive: [10] 103 % of control | [11] 100 % of control | [20] 100 % of control

[I][Hg][CH2]C1Cc2ccccc2O1 (centres undefined)
inactive: dose: 6.25 mg/kg/injection, schedule: Q01DX009 (ip), vehicle: saline 90 % of control | dose: 12.5 mg/kg/injection, schedule: Q01DX009 (ip), vehicle: saline 90 % of control | dose: 25.0 mg/kg/injection, schedule: Q01DX009 (ip), vehicle: saline 99 % of control | [18] 96 % of control

O=[N+]([O-])c1cc2c(ccc3occc32)o1
inactive: [10] 102 % of control | [11] 97 % of control | [20] 98 % of control

CNC(=O)OCC1=C(COC(=O)NC)C2OC1C(C(=O)OC)=C2c1ccc(Cl)cc1 (centres undefined)
inactive: dose: 1.56 mg/kg/injection, schedule: Q01DX009 (ip), vehicle: distilled water + Tween-80 100 % of control | dose: 3.13 mg/kg/injection, schedule: Q01DX009 (ip), vehicle: distilled water + Tween-80 92 % of control | dose: 6.25 mg/kg/injection, schedule: Q01DX009 (ip), vehicle: distilled water + Tween-80 108 % of control | dose: 12.5 mg/kg/injection, schedule: Q01DX009 (ip), vehicle: distilled water + Tween-80 90 % of control and 94 % of control | dose: 25.0 mg/kg/injection, schedule: Q01DX009 (ip), vehicle: distilled water + Tween-80 88 % of control | dose: 50.0 mg/kg/injection, schedule: Q01DX009 (ip), vehicle: distilled water + Tween-80 88 % of control | dose: 100.0 mg/kg/injection, schedule: Q01DX009 (ip), vehicle: distilled water + Tween-80 88 % of control | dose: 200.0 mg/kg/injection, schedule: Q01DX009 (ip), vehicle: distilled water + Tween-80 101 % of control

FC(F)(F)S.[Ag]
inactive: dose: 12.5 mg/kg/injection, schedule: Q01DX009 (ip), vehicle: saline with Tween-80 107 % of control | [19] 116 % of control

Cc1s\c(=N/N=N/N=c2\sc(C)c(C)n2Cc2ccccc2)n(Cc2ccccc2)c1C
inactive: [15] 103 % of control | [16] 97 % of control | [17] 103 % of control

CCCCN(CCCC)CC(C)(C)C(O)c1ccc(OC)c2ccccc12 (centres undefined)
inactive: [4] 106 % of control | [5] 106 % of control | [6] 101 % of control and 103 % of control

O=C(O)c1c[nH]c2cc(OCCOc3ccc(Br)cc3)ccc2c1=O
inactive: [1] 87 % of control | [2] 93 % of control | [3] 91 % of control

COc1ccc(Br)cc1/C=N\NS(=O)(=O)c1ccc(C)cc1
inactive: [7] 104 % of control | [1] 116 % of control | [8] 109 % of control | [2] 100 % of control | [9] 122 % of control | [3] 108 % of control
